For 19 molecules, Ki and Kb results are on record in ChEMBL document CHEMBL1126818, “Isosteric replacement in a series of -substituted monophosphonate calcium antagonists” (Bioorg Med Chem Lett, 1993).

The nature of experiment [1]: The compound was tested in vitro for its ability to displace [3H]PN-200-110 from Calcium Channel in rat brain membranes. It is filed as cell membranes.
A further experiment is filed under the species Rattus norvegicus. In words: Inhibition of contractions induced by K+ depolarization in rat dorsal aorta. In kind it is functional.
Experiment [2] in a line: The compound was tested in vitro for its ability to displace [3H]PN-200-110 from rat brain membranes. It is filed as tissue-based, Membrane.

A value given as a limit tells only on which side of the number the result lay.

For the molecule `CCCCOP(=O)(CC(CCc1ccccc1)OC(=O)C(F)(F)F)OCCCC` (configuration not stated), the Ki in experiment [1] is over 1000 nM. This molecule also displayed a Kb in the experiment listed under Rattus norvegicus of over 1000 nM.

In the experiment filed under Rattus norvegicus, `CCOP(=O)(Cc1ccc(-c2nc3ccccc3s2)cc1)OCC` [FOSTEDIL] showed a Kb of over 1000 nM. `CCCCNC(=O)OC(CCc1ccccc1)CP(=O)(OCCCC)OCCCC` (configuration not stated): in experiment [1], the Ki was over 1000 nM. This molecule also registered a Kb in the experiment listed under Rattus norvegicus of 38 nM. As for `CCCCCC(=O)OC(CCCc1ccccc1)CP(=O)(OCCCC)OCCCC` (configuration not stated), in experiment [1], the inhibitory constant (Ki) was over 1000 nM. The Kb in the experiment listed under Rattus norvegicus was over 1000 nM.

As for `CCCCOP(=O)(CC(CCOc1ccccc1)CP(=O)(OCCCC)OCCCC)OCCCC` [BELFOSDIL], the Ki in experiment [1] was 23 nM. The molecule further registered a Kb in the experiment filed under Rattus norvegicus of 0.5 nM. In the case of `CCCCCC(=O)OC(CCc1ccccc1)CP(=O)(OCCCC)OCCCC` (configuration not stated), in experiment [1], the inhibition constant (Ki) came out at 51 nM. Further, in the experiment listed under Rattus norvegicus, the Kb amounted to 6.6 nM.

Regarding `COC(=O)C1=C(C)NC(C)=C(C(=O)OC)C1c1ccccc1[N+](=O)[O-]` [NIFEDIPINE], in experiment [1], the inhibition constant (Ki) was 0.53 nM. The Kb in the experiment filed under Rattus norvegicus turned out to be 0.5 nM. As to `CCCCOP(=O)(CC(CCc1ccccc1)OC(=O)c1ccccc1)OCCCC` (configuration not stated), in experiment [1], the Ki was over 1000 nM. In the experiment listed under Rattus norvegicus, this molecule registered a Kb of 662 nM. For `CCCCOP(=O)(CC(CCc1ccccc1)OC(C)=O)OCCCC` (configuration not stated), the Ki in experiment [1] amounted to 55 nM. In the experiment filed under Rattus norvegicus, this molecule had a Kb of 25 nM. For `CCCCCC(=O)OC(Cc1ccccc1)CP(=O)(OCCCC)OCCCC` (configuration not stated), in experiment [1], the Ki amounted to 560 nM. Moreover, the Kb in the experiment listed under Rattus norvegicus stood at 211 nM. Regarding `CCCCOP(=O)(CC(CCc1ccccc1)OC(=O)C(C)(C)C)OCCCC` (configuration not stated), the Ki in experiment [1] was over 1000 nM. The molecule also registered a Kb in the experiment filed under Rattus norvegicus of 105 nM. Consider `CCCCNC(=O)NC(CCc1ccccc1)CP(=O)(OCCCC)OCCCC` (configuration not stated), for which the Ki in experiment [1] was over 1000 nM. In addition, in the experiment listed under Rattus norvegicus, the Kb came out at 129 nM. The like results for `CCCCOP(=O)(CC(CCc1ccccc1)NP(=O)(OCC)OCC)OCCCC` (configuration not stated) were, in that order, over 1000 nM and 62 nM. Regarding `CCCCOC(=O)NC(CCc1ccccc1)CP(=O)(OCCCC)OCCCC` (configuration not stated), in experiment [1], the Ki was over 1000 nM. The Kb in the experiment listed under Rattus norvegicus was 122 nM. In the case of `CCCCOP(=O)(CC(CCc1ccccc1)OP(=O)(OCCCC)OCCCC)OCCCC` (configuration not stated), the Ki in experiment [1] is 385 nM. Moreover, the Kb in the experiment filed under Rattus norvegicus worked out at 76 nM. In turn, `CCCCOP(=O)(CC(CCc1ccccc1)OS(C)(=O)=O)OCCCC` (configuration not stated) yielded a Ki in experiment [2] of over 1000 nM. The Kb in the experiment filed under Rattus norvegicus is over 1000 nM. Take `CCCCOC(=O)OC(CCc1ccccc1)CP(=O)(OCCCC)OCCCC` (configuration not stated): the Ki in experiment [1] is over 1000 nM. The Kb in the experiment listed under Rattus norvegicus amounted to 255 nM.

For the molecule `CCCCOP(=O)(CC(CCc1ccccc1)OC(=O)C1CC1)OCCCC` (configuration not stated), in experiment [1], the Ki was over 1000 nM. The same molecule displayed a Kb in the experiment listed under Rattus norvegicus of 628 nM. The matching figures for `CCCCOP(=O)(CC(CCc1ccccc1)NS(=O)(=O)c1ccc(C)cc1)OCCCC` (configuration not stated): over 1000 nM and 348 nM.
